Reference: ChEMBL document CHEMBL5126518, “Quercetin derivatives: Drug design, development, and biological activities, a review” (Eur J Med Chem, 2022)
Converted amounts (≈) assume the structure as drawn.

Key:
[1] = molecular target: UDP-galactopyranose mutase (Mycobacterium tuberculosis) (UniProt P9WIQ1); experiment: Inhibition of Mycobacterium tuberculosis UGM at 20 uM by HPLC inhibition assay relative to control
[2] = molecular target: Type-1 angiotensin II receptor (Homo sapiens, UniProt P30556); experiment: Inhibition of human AT1R expressed in HEK293 cells by non-linear regression analysis; type: cell-based
[3] = Antioxidant activity assessed as DPPH radical scavenging activity after 30 mins under dark condition; type: functional
[4] = Antioxidant activity assessed as DPPH radical scavenging activity up to 2 mM relative to control; type: functional
MDA-MB-231 [5] = experiment: Antiproliferative activity against human MDA-MB-231 cells assessed as cell growth inhibition measured after 48 hrs by MTT assay relative to control; type: functional; parameters: scale not given: the % may be the effect or the level left
MDA-MB-231 [6] = experiment: Antiproliferative activity against human MDA-MB-231 cells assessed as cell growth inhibition measured after 48 hrs by MTT assay; type: functional, cell-based; settings: MDA-MB-231, 48 h
Candida albicans [7] = experiment: Antifungal activity against Candida albicans 13/15 assessed as fungal growth inhibition measured after 24 hrs by microdilution assay; type: functional
MDA-MB-231 [8] = experiment: Antiproliferative activity against human MDA-MB-231 cells assessed as cell growth inhibition measured after 72 hrs by MTT assay; type: functional, cell-based; settings: MDA-MB-231, 72 h
Candida albicans [9] = experiment: Antifungal activity against Candida albicans 527/14 assessed as fungal growth inhibition measured after 24 hrs by microdilution assay; type: functional
Candida albicans [10] = experiment: Antifungal activity against Candida albicans 475/15 assessed as fungal growth inhibition measured after 24 hrs by microdilution assay; type: functional
Candida albicans [11] = experiment: Antifungal activity against Candida albicans 10/15 assessed as fungal growth inhibition measured after 24 hrs by microdilution assay; type: functional
[12] = molecular target: UDP-galactopyranose mutase (Mycobacterium tuberculosis, UniProt P9WIQ1); experiment: Binding affinity to Mycobacterium tuberculosis UGM assessed as dissociation constant by fluorescence polarization assay
HCT-116 [13] = experiment: Anticancer activity against human HCT-116 cells xenografted in mouse assessed as fold decrease in tumor growth measured after 3 weeks by digital caliper method; type: functional
Mus musculus = organism: Mus musculus; experiment: Anticancer activity against ApcMin harboring mouse model assessed as fold increase in p53 expression measured after 16 weeks by […]; type: functional, Neoplasm
HCT-116 [14] = experiment: Antiproliferative activity against human HCT-116 cells assessed as cell growth inhibition by Z2 coulter counter based analysis; type: functional
[15] = Cytotoxicity against MDCK cells assessed as reduction in cell viability incubated for 48 hrs by SRB assay; type: toxicity, cell-based, Canis lupus familiaris; settings: dog
Influenza A virus = experiment: Antiviral activity against influenza A/PR/8/34 H1N1 virus infected in MDCK cells assessed as cell growth inhibition measured after 48 hrs by SRB assay; type: functional, organism-based; settings: A/PR/8/34 H1N1, MDCK
[16] = Selectivity ratio of GI50 for cytotoxicity against human DU-145 cells to GI50 for cytotoxicity against human PC-3 cells by MTT assay; type: functional
PC-3 = experiment: Cytotoxicity against human PC-3 cells assessed as cell growth inhibition measured after 48 hrs by MTT assay; type: functional
[17] = molecular target: Bcl-2-like protein 1 (Homo sapiens) (UniProt Q07817); experiment: Binding affinity to recombinant human Bcl-xL assessed as change in enthalpy by MM-PBSA method
Staphylococcus aureus [18] = experiment: Antibiofilm activity against heteroresistant vancomycin-intermediate Staphylococcus aureus ATCC 700698 assessed as inhibition of biofilm formation incubated for 24 hrs by crystal violet staining based assay; type: functional, organism-based; settings: ATCC 700698, 24 h
Staphylococcus aureus [19] = experiment: Antibiofilm activity against methicillin resistant Staphylococcus aureus AMCSA 5016 assessed as inhibition of biofilm formation incubated for 24 hrs by crystal violet staining based assay; type: functional, organism-based; settings: AMCSA 5016, 24 h
Staphylococcus aureus [20] = experiment: Antibiofilm activity against vancomycin-intermediate Staphylococcus aureus ATCC 700699 assessed as inhibition of biofilm formation incubated for 24 hrs by crystal violet staining based assay; type: functional, organism-based; settings: ATCC 700699, 24 h
Acinetobacter baumannii = experiment: Antibacterial activity against carbapenem-resistant Acinetobacter baumannii AMC-AB 643 assessed as fold reduction in ceftazidime MIC incubated for 20 hrs by checkerboard synergy test; type: functional
Pseudomonas aeruginosa [21] = experiment: Antibacterial activity against carbapenem-resistant Pseudomonas aeruginosa CCARM2321 assessed as fold reduction in ceftazidime MIC incubated for 20 hrs by checkerboard synergy test; type: functional
Pseudomonas aeruginosa [22] = experiment: In vivo antibacterial activity against carbapenem-susceptible Pseudomonas aeruginosa ATCC 27853 infected in CD-1 mouse assessed as mouse survival at 40 mg/kg per day administered for 7 days in presence of ceftazidime; type: functional; settings: time 7 day
Staphylococcus aureus [23] = experiment: Antibiofilm activity against methicillin sensitive Staphylococcus aureus ATCC 29213 assessed as inhibition of biofilm formation incubated for 24 hrs by crystal violet staining based assay; type: functional, organism-based; settings: ATCC 29213, 24 h
MCF7 = experiment: Induction of apoptosis in human MCF7 cells assessed as early apoptotic cells at 50 uM measured after 12 hrs by annexin V-FITC/propidium iodide staining based flow cytometry relative to control; type: functional
Heyndrickxia coagulans = experiment: Antibacterial activity against Bacillus coagulans assessed as cell growth inhibition incubated for 18 hrs by agar overlay method; type: functional
Enterobacter cloacae = experiment: Antibacterial activity against Enterobacter cloacae assessed as cell growth inhibition incubated for 18 hrs by agar overlay method; type: functional
Bacillus subtilis = experiment: Antibacterial activity against Bacillus subtilis ATCC 6633 assessed as cell growth inhibition incubated for 18 hrs by agar overlay method; type: functional
Bacillus cereus = experiment: Antibacterial activity against Bacillus cereus NAS 596 assessed as cell growth inhibition incubated for 18 hrs by agar overlay method; type: functional
Escherichia coli = experiment: Antibacterial activity against Escherichia coli ATCC 25922 assessed as cell growth inhibition incubated for 18 hrs by agar overlay method; type: functional
Proteus mirabilis = experiment: Antibacterial activity against Proteus mirabilis assessed as cell growth inhibition incubated for 18 hrs by agar overlay method; type: functional
Klebsiella pneumoniae = experiment: Antibacterial activity against Klebsiella pneumoniae ATCC 13883 assessed as cell growth inhibition incubated for 18 hrs by agar overlay method; type: functional
Staphylococcus aureus [24] = experiment: Antibacterial activity against Staphylococcus aureus ATCC 6538 assessed as cell growth inhibition incubated for 18 hrs by agar overlay method; type: functional

Sequence of UDP-galactopyranose mutase (Mycobacterium tuberculosis) (P9WIQ1 whole entry, looked up): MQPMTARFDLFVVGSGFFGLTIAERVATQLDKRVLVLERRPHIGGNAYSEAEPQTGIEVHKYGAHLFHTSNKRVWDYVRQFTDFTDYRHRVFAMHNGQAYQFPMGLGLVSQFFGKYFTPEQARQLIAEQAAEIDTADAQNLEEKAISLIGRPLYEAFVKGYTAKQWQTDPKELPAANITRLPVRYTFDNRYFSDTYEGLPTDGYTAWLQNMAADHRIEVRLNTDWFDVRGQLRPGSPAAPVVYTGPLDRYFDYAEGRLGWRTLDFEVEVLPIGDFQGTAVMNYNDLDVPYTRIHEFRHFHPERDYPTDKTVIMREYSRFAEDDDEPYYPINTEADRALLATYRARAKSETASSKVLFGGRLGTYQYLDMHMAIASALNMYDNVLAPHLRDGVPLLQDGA
Sequence of UDP-galactopyranose mutase (P9WIQ1 whole entry): as the sequence (P9WIQ1 whole entry, looked up) above
Sequence of Type-1 angiotensin II receptor (P30556 whole entry): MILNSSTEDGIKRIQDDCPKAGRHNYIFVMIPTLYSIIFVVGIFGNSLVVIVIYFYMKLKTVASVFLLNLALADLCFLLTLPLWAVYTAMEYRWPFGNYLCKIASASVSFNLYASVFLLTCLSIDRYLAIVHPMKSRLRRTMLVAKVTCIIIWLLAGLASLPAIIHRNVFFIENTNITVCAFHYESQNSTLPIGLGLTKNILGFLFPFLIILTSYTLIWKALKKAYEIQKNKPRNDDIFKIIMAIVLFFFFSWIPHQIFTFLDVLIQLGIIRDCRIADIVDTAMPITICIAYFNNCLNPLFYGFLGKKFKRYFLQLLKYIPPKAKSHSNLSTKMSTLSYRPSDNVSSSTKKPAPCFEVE
Sequence of Bcl-2-like protein 1 (Homo sapiens) (Q07817 whole entry): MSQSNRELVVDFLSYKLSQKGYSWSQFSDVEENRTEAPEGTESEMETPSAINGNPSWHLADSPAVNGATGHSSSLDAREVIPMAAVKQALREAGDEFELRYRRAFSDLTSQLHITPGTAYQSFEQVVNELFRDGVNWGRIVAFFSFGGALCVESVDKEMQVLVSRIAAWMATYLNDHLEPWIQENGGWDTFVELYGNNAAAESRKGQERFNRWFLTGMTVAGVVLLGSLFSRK

## O=c1c(O)c(-c2ccc(O)c(O)c2)oc2c(CN3CCSCC3)c(O)cc(O)c12
[1]
  inhibition: 57.9%

## CCCCc1nc(Cl)c(COC(=O)CCC(=O)Oc2ccc(-c3oc4cc(O)cc(O)c4c(=O)c3O)cc2O)n1Cc1ccc(-c2ccccc2-c2nnn[nH]2)cc1
[2]
  IC50: 0.14 µM

## COc1cc(OC)c2/c(=N/c3cc(OC)c(OC)c(OC)c3)c(OC)c(-c3ccc(OC)c(OC)c3)oc2c1
[3]
  IC50: 220 µM

## Nc1c(-c2ccc(O)c(O)c2)oc2cc(O)cc(O)c2c1=O
[4]
  Activity: 80%

## COc1cc(OC)c2/c(=[S+]/C)c(OC)c(-c3ccc(OC)c(OC)c3)oc2c1.[I-]
MDA-MB-231 [5]
  Activity: 38.1%
[3]
  Activity: 0.05 mM
MDA-MB-231 [6]
  IC50: 1.84 µM

## O=c1cc(-c2ccc(O)c(O)c2)oc2cc(O)cc(O)c12 [LUTEOLIN]
Candida albicans [7]
  MIC: 37.5 µg/mL (≈ 131 µM)
MDA-MB-231 [8]
  IC50: 7.29 µM
Candida albicans [9]
  MIC: 37.5 µg/mL (≈ 131 µM)
Candida albicans [10]
  MIC: 37.5 µg/mL (≈ 131 µM)
Candida albicans [11]
  MIC: 37.5 µg/mL (≈ 131 µM)

## COc1cc(OC)c2/c(=N/N)c(OC)c(-c3ccc(OC)c(OC)c3)oc2c1
[3]
  IC50: 40 µM

## O=c1c(O)c(-c2ccc(O)c(O)c2)oc2c(CN3CCCCC3)c(O)cc(O)c12
[12]
  Kd: > 2000 µM
[1]
  inhibition: 23.2%

## COc1cc(-c2oc3ccccc3c(=O)c2O)cc(OC)c1OC
HCT-116 [13]
  fold change (FC): 1.5
Mus musculus
  fold change (FC): 3
HCT-116 [14]
  IC50: 3.3 µM

## COc1cc(OC)c2/c(=N/c3ccccc3)c(OC)c(-c3ccc(OC)c(OC)c3)oc2c1
[3]
  IC50: 490 µM

## O=c1c(O)c(-c2ccc(O)c(O)c2)oc2cc(O[C@H]3O[C@H](CO)[C@@H](O)[C@H](O)[C@H]3O)cc(O)c12
[15]
  CC50 at 48 h: > 100 µg/mL
Influenza A virus
  IC50: 2.1 µg/mL (≈ 4.52 µM)

## O=C(O)CC[C@H](NC(=O)Oc1ccc(-c2oc3cc(O)cc(O)c3c(=O)c2O)cc1O)C(=O)O
[16]
  RatioGI50: 17
PC-3
  GI50: 6 µM
[17]
  deltaH: 47.2 kcal/mol

## O=c1c(O)c(-c2ccc(F)c(F)c2)oc2cc(O)cc(O)c12
Staphylococcus aureus [18]
  IC50: 1.8 µg/mL (≈ 5.88 µM)
Staphylococcus aureus [19]
  IC50: 1.8 µg/mL (≈ 5.88 µM)
Staphylococcus aureus [20]
  IC50: 1.8 µg/mL (≈ 5.88 µM)
Acinetobacter baumannii
  fold change (FC): 4
[4]
  Activity: 50%
Pseudomonas aeruginosa [21]
  fold change (FC): 8
Pseudomonas aeruginosa [22]
  Activity: 20%
Staphylococcus aureus [23]
  IC50: 1.8 µg/mL (≈ 5.88 µM)
MCF7
  Activity: 47.7%

## O=c1c(O)c(-c2ccccc2)oc2cc(O)cc(O)c12 [GALANGIN]
Heyndrickxia coagulans
  MIC: 0.25 µg/mL (≈ 0.925 µM)
Enterobacter cloacae
  MIC: 0.25 µg/mL (≈ 0.925 µM)
Bacillus subtilis
  MIC: 0.25 µg/mL (≈ 0.925 µM)
Bacillus cereus
  MIC: 0.25 µg/mL (≈ 0.925 µM)
Escherichia coli
  MIC: 0.25 µg/mL (≈ 0.925 µM)
Proteus mirabilis
  MIC: 0.25 µg/mL (≈ 0.925 µM)
Klebsiella pneumoniae
  MIC: 0.25 µg/mL (≈ 0.925 µM)
Staphylococcus aureus [24]
  MIC: 0.25 µg/mL (≈ 0.925 µM)
